This note sets out measurements from the Deep4Chem optical property database.

A short description of the data set: photoluminescence quantum yield (fraction); solvent given as SMILES.

Where the note is “in C1CCCCC1”, `CCC(C)(C)c1ccc2c(c1)C(CCOC)(CCOC)c1cc(-c3ccc4c(c3)C(CCOC)(CCOC)c3cc(C(C)(C)CC)ccc3-4)ccc1-2` came in with a photoluminescence quantum yield of 0.61.

On to `Cc1ccc(N(c2ccc(C)cc2)c2ccc(Oc3nnc(Cl)nn3)cc2)cc1`, for which the photoluminescence quantum yield (in ClCCl) stood at 0.0006.

As to `CCCCN(CCCC)c1ccc(/C=C/c2ccc3nc(/C=C/c4ccc(N(C)C)cc4)c(=O)n(CCC)c3c2)cc1`, the photoluminescence quantum yield is, setting by setting: (in C1COCCO1) 0.26; (in CC#N) 0.04; (in ClCCl) 0.2.

For the compound `CCN(CC)c1ccc2cc(C#N)/c(=N\C(C)=O)oc2c1`, the photoluminescence quantum yield is, setting by setting: (in CCO) 0.15; (in ClCCl) 0.8.

Under “in ClCCl”, `C[Si]1(C)c2cc(-c3cccs3)ccc2C=Cc2ccc(-c3cccs3)cc21` showed a photoluminescence quantum yield of 0.77.

Regarding `CCCn1c2cccc3c2[c+]2c4c1cccc4n(CCC)c1cccc(c12)n3CCC`, the photoluminescence quantum yield by setting is: (in CC#N) 0.16; (in CO) 0.2; (in ClCCl) 0.16.

On to `CCC1=C(C)C(=O)n2c1cc1c(C)cc(C)n1c2=O`, for which the photoluminescence quantum yield (in CO) was 0.89, the photoluminescence quantum yield (in CS(C)=O) turned out to be 0.92, the photoluminescence quantum yield (in ClC(Cl)Cl) is 0.96 and the photoluminescence quantum yield (in c1ccccc1) came out at 1.

For `COc1cccc(OC)c1-c1c2ccc(=[N+]3CCCCC3)cc-2oc2cc(N3CCCCC3)ccc12`, the photoluminescence quantum yield (in ClCCl) is 0.86.

Compound `Fc1ccc2c(c1)sc1nc(-c3ccccc3)sc12` returned a photoluminescence quantum yield (in CS(C)=O) of 0.36.

In turn, `Cc1ccc(/C=C/c2nc(-c3cccc([N+](=O)[O-])c3)[nH]c2/C=C/c2ccc(C)cc2)cc1` yielded a photoluminescence quantum yield (in ClCCl) of 0.

For `CC1=CC(C)=[N+]2C1=C(C1=C(C)C3=C(C)c4c(C)cc(C)n4[B-](F)(F)[N+]3=C1C)c1c(C)cc(C)n1[B-]2(F)F`, under “in ClC(Cl)Cl”, the photoluminescence quantum yield stood at 0.03.

`CC[C@H](C)[C@H](Nc1c(C(C)=O)c(=O)oc2cc(N(C)C)ccc12)C(=O)O` gave a photoluminescence quantum yield (in ClCCl) of 0.0031.

For the compound `CCCN1/C(=C/C=C/C=C/C2=[N+](CCC)c3ccccc3C2(C)C)C(C)(C)c2ccccc21`, the photoluminescence quantum yield reads like this: (in CO) 0.27; (in CS(C)=O) 0.55; (in O) 0.05.

Consider `CCCCCn1c2ccc(S(=O)(=O)O)cc2c(=O)c2cc(S(=O)(=O)O)ccc21`, for which the photoluminescence quantum yield (in CS(C)=O) came out at 0.7 and the photoluminescence quantum yield (in O) stood at 0.92.

For the compound `O=S(=O)([O-])c1ccc(O)c2ccccc12`, the photoluminescence quantum yield reads like this: (in C1COCCO1) 0.14; (in CC#N) 0.17; (in CC(C)O) 0.2; (in CCCCO) 0.2; (in CCO) 0.18; (in CCOC(C)=O) 0.14. The photoluminescence quantum yield (in CN(C)C=O) was 0.14, the photoluminescence quantum yield (in CO) was found to be 0.16 and the photoluminescence quantum yield (in CS(C)=O) was 0.25.

As for `COc1ccc(-c2nc(C)cc(-c3ccc(-n4c5ccccc5c5ccccc54)cc3)n2)cc1`, the photoluminescence quantum yield was 0.47 (in C1CCOC1), 0.68 (in CN(C)C=O), 0.46 (in Cc1ccccc1) and 0.65 (in ClC(Cl)Cl).

Under “in CC#N”, `CCN(CC)c1ccc(/C=N/CC/N=C/c2ccc(N(CC)CC)cc2O)c(O)c1` had a photoluminescence quantum yield of 0.13.

For `CCN1c2ccc(/C=N/Nc3ccccn3)cc2Sc2cc(-c3ccc(OC)cc3)ccc21`, the photoluminescence quantum yield by setting is: (in C1CCOC1) 0.32; (in CS(C)=O) 0.55; (in Cc1ccccc1) 0.16; (in ClCCl) 0.38.

On to `COCCC1=Cc2nc1ccc1[nH]c(cc1CCOC)c1nc(c(N3C(=O)CCCC3=O)cc3[nH]c2cc3CCOC)C(CCOC)=C1`, for which the photoluminescence quantum yield (in Cc1ccccc1) stood at 0.36.

`Cc1cc(C)c(B(c2ccc(-n3c4ccccc4c4ccccc43)cc2)c2c(C)cc(C)cc2C)c(C)c1` yielded a photoluminescence quantum yield (in Cc1ccccc1) of 0.75.
